Patent publication US11608323B2 (SYNGENTA LIMITED, priority 2013, dated 2023)

How the values were obtained:
Assay type in all cases: in vivo
[1] = test system: ABUTH; test: Pre-emergence herbicidal activity, glasshouse pot test; conditions: rate 1000 g/Ha, evaluated after 13 days, scale 0-5
Procedure, shortened: (§1)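 Damage rated 13 days post-treatment on a 0-5 scale, 5 meaning total plant damage. Pots were sprayed pre-emergence, one day after sowing, with an acetone/water-derived aqueous spray containing 0.5% Tween 20. Plants grew under 14 h light, 65% humidity, 24/16 °C, watered twice daily.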

[2] = test system: ALOMY; test: as above; conditions: rate 1000 g/Ha, evaluated after 13 days, scale 0-5
Procedure, shortened: as §1

[3] = test system: AMARE; test: as above; conditions: rate 1000 g/Ha, evaluated after 13 days, scale 0-5
Procedure, shortened: as §1

[4] = test system: ECHCG; test: as above; conditions: rate 1000 g/Ha, evaluated after 13 days, scale 0-5
Procedure, shortened: as §1

[5] = test system: SETFA; test: as above; conditions: rate 1000 g/Ha, evaluated after 13 days, scale 0-5
Procedure, shortened: as §1

[6] = test system: ZEAMX; test: as above; conditions: rate 1000 g/Ha, evaluated after 13 days, scale 0-5
Procedure, shortened: as §1

[7] = test system: ABUTH; test: Post-emergence herbicidal activity, glasshouse pot test; conditions: Abutilon theophrasti; application post-emergence; rate 1000 g/Ha; evaluated after 13 days
Procedure, shortened: (§2)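 Seeds were sown in standard soil and cultivated for 8 days under controlled glasshouse conditions. Seedlings were then sprayed with an aqueous solution of the formulated compound containing 0.5% Tween 20. Injury was rated after a further 13 days, where 5 indicated total damage.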

[8] = test system: ALOMY; test: as above; conditions: Alopecurus myosuroides; application post-emergence; rate 1000 g/Ha; evaluated after 13 days
Procedure, shortened: as §2

[9] = test system: AMARE; test: as above; conditions: Amaranthus retroflexus; application post-emergence; rate 1000 g/Ha; evaluated after 13 days
Procedure, shortened: as §2

[10] = test system: ECHCG; test: as above; conditions: Echinochloa crus-galli; application post-emergence; rate 1000 g/Ha; evaluated after 13 days
Procedure, shortened: as §2

[11] = test system: SETFA; test: as above; conditions: Setaria faberi; application post-emergence; rate 1000 g/Ha; evaluated after 13 days
Procedure, shortened: as §2

[12] = test system: ZEAMX; test: as above; conditions: Zea mays; application post-emergence; rate 1000 g/Ha; evaluated after 13 days
Procedure, shortened: as §2

SMILES | ABUTH damage score, application pre-emergence [1] | ALOMY damage score, application pre-emergence [2] | AMARE damage score, application pre-emergence [3] | ECHCG damage score, application pre-emergence [4] | SETFA damage score, application pre-emergence [5] | ZEAMX damage score, application pre-emergence [6] | Post-emergence herbicidal activity ABUTH (damage score 0-5) [7] | Post-emergence herbicidal activity ALOMY (damage score 0-5) [8] | Post-emergence herbicidal activity AMARE (damage score 0-5) [9] | Post-emergence herbicidal activity ECHCG (damage score 0-5) [10] | Post-emergence herbicidal activity SETFA (damage score 0-5) [11] | Post-emergence herbicidal activity ZEAMX (damage score 0-5) [12]
CON1CC(O)N(c2cc(C(F)(F)F)ccn2)C1=O (stereo not drawn) [Compound A36] | 1 | 2 | 5 | 4 | 2 | 0 | 1 | 4 | 5 | 5 | 3 | 2
CN1C(=O)N(c2cc(C(F)(F)F)ccn2)C(O)C1OCC(F)(F)F (stereo not drawn) [Compound A39] | 5 | 4 | 5 | 3 | 2 | 1 | 5 | 5 | 5 | 5 | 5 | 1
CC1NC(=O)N(c2cc(C(F)(F)F)ccn2)C1O (stereo not drawn) [Compound A40] | 4 | 2 | 5 | 3 | 2 | 2 | 5 | 4 | 5 | 4 | 3 | 1
C=CCOC1C(O)N(c2cc(C(F)(F)F)ccn2)C(=O)N1C (stereo not drawn) [Compound A41] | 5 | 1 | 5 | 2 | 2 | 1 | 5 | 4 | 5 | 2 | 4 | 2
COC(OC)C1C(O)N(c2cc(C(F)(F)F)ccn2)C(=O)N1C (stereo not drawn) [Compound A42] | 1 | 0 | 4 | 0 | 3 | 0 | 4 | 2 | 4 | 0 | 2 | 1
CN1C(=O)N(c2cc(C(F)(F)F)ccn2)C(O)C1CO (stereo not drawn) [Compound A43] | 5 | 1 | 2 | 1 | 2 | 0 | 5 | 1 | 1 | 5 | 0 | 2
C#CCOC1C(O)N(c2cc(C(F)(F)F)ccn2)C(=O)N1C (stereo not drawn) [Compound A44] | 5 | 4 | 5 | 5 | 4 | 2 | 5 | 4 | 5 | 5 | 5 | 4
COCCOC1C(O)N(c2cc(C(F)(F)F)ccn2)C(=O)N1C (stereo not drawn) [Compound A45] | 5 | 2 | 5 | 3 | 3 | 1 | 5 | 2 | 5 | 3 | 3 | 1
O=C1N(c2cc(C(F)(F)F)ccn2)C(O)[C@@H]2CCCN12 (stereo partly drawn) [Compound A46] | 5 | 4 | 5 | 4 | 2 | 3 | 5 | 5 | 5 | 5 | 5 | 3
O=C1N(c2cc(C(F)(F)F)ccn2)C(O)[C@H]2CCCN12 (stereo partly drawn) [Compound A47] | 5 | 4 | 5 | 5 | 4 | 2 | 5 | 5 | 5 | 5 | 5 | 4
CC(C)OC1C(O)N(c2cc(C(F)(F)F)ccn2)C(=O)N1C (stereo not drawn) [Compound A48] | 5 | 4 | 5 | 1 | 3 | 1 | 5 | 4 | 5 | 4 | 4 | 1
